Where two headings read alike, the source gives them in different places.

Experiment [1] addresses ALS (acetolactate synthase), Wild type. In words: ALS enzyme assay, wild-type control. Type of experiment: biochemical, Zea mays. To be noted: read-out: ID50% (the source's name). Here is the method:
(§1) Seeds of generation M₁BC₁ M₁BC₂ of the nine mutants were sprayed pre-emergence with the herbicide imazethapyr (PURSUIT) (Trade Mark) at a rate of 250 g/ha and grown in a growth chamber (16 hour day, 27°C; 8 hour night, 17°C). Plants were harvested after 11 days.
(§2) Four grams of leaf material were harvested from just above the first leaf axis and ground in a mortar and pestle in 20ml of a solution containing 40mM Tricine (Trade Mark), 10mM EDTA, 5mM pyruvate, 80 »M flavin adenine dinucleotide (FAD), 1mM dithiothreitol (DTT), pH 8, plus 0.8g Polyclar AT. The homogenate was pressed through four layers of muslin and centrifuged at 30,000g for 20 minutes.
(§3) The supernatant was brought to 65% saturation with ammonium sulphate, left to precipitate for 30 minutes and then centrifuged at 30.000g for 20 minutes. The pellet was resuspended in 2.5ml of 40mM Tricine, 10mM EDTA, 5mM pyruvate, 80»M FAD, 25% (v/v) glycerol, 1mM DTT, pH 8, and desalted into 3.5ml of 40mM Tricine, 10mM EDTA, 25% (v/v) glycerol, 1mM DTT, pH 8.
(§4) One hundred microlitres of the enzyme extract was used for each assay. Final reagent concentrations were: 120mM Tricine, 50mM pyruvate, 10mM MgCl₂, […], 93»M thiamine pyrophosphate (TPP), pH 8, in the presence or absence of a herbicide of interest, in a volume of 750 »l. Incubations were carried out at 37°C for 30 minutes. Reactions were stopped with 250»l of 1.84M sulphuric acid, and decarboxylation of the acetolactate carried out at 37°C for 75 minutes, or at 60°C for 30 minutes. Assay blanks had sulphuric acid added prior to the enzyme extract. To the samples and blanks 650»l of α-naphthol in 2.73M NaOH/0.16%(w/v) creatine were added followed by incubation at 37°C for 30 minutes. After centrifugation at 30,000g the optical density of the supernatant was read at 540nm.
(§5) The assay procedure described was carried out on ALS enzyme extracted from each of the nine mutants for the following herbicides: imazethapyr (PURSUIT) imazapyr (ARSENAL) imazaquin (SCEPTER) chlorsulfuron (GLEAN) chlorimuron (CLASSIC) […] (HARMONY) The enzyme activity graphs are given as Figures 3 to 8. In addition, homozygous lines of mutants 1 and 2 which were selected from generation M₁BC₁S₂, were also tested against the same group of herbicides and against representatives of the triazolopyrimidines and phenoxypyrimidines. The chemical structures of these herbicides are shown in Figure 2 of the accompanying drawings.
(§6) From the enzyme assay data it is possible to derive, as a measure of the degree of inhibition the factor ID50% for each mutant and for each herbicide. This factor is indicative of the herbicide concentration which gives 50% inhibition of the ALS activity in comparison with the wild-type control. It is also possible to derive the fold increase in resistance.

For experiment [2], the system named is Mutant 7 plants. In words: Cross-resistance testing (glasshouse dose response), Mutant 7. Type of experiment: in vivo, Zea mays. The following applies: pre-emergence spray, assessed after four weeks growth. The text has this: The seeds used in this screen were populations of mixed tolerant and sensitive seed, segregating 1:1, derived from each of the heterogygous, tolerant mutants crossed with homozygous, sensitive UE95. All of the tolerant progeny are heterozygous for tolerance. Each of the mutants identified above were used except mutant 4. The controls were seed of self-pollinated UE95 which was pollinated in the same year as the tolerant lines.
One litre of compost was placed in each seed tray of dimensions 19cm x 11cm x 5cm deep and firmed down flat. Two furrows 1 cm deep were drawn in the surface of the compost in each tray and six seeds were sown in each furrow (total twelve seeds per tray). Some trays were sown with 24 seeds, in which case three furrows were made and 8 seeds sown per furrow.
In each test each tray contained either the seed of one mutant or of the UE95 control for each herbicide application rate and for the untreated control.
Five different types of ALS-inhibitor herbicides were tested on the mutants plus imazethapyr (PURSUIT) as a comparison. Four rates of each were applied; approximately 0.1x, 0.5x, 1x and 4x the estimated field rates for each herbicide. The rates are the same for mutant 3 to 10 but higher rates for chlorimuron (CLASSIC) and lower rates for chlorsulfuron (GLEAN) were applied to mutants 1 and 2.
The rates of application used in the screening tests were as follows: chlorimuron (CLASSIC) 4,20,40,160 g/Ha (mutants 1 and 2); and, 8,40,80,320 g/Ha (mutants 3 to 10); chlorsulfuron (GLEAN) 5,25,50,200 g/Ha (mutants 1 and 2); and, 1,5,10,40 g/Ha (mutants 3 to 10); imazaquin (SCEPTER) 30,150,300,1200 g/Ha; triazolopyrimidine 5,25,50,200 g/Ha; phenoxypyrimidine 10,50,100,400 g/Ha; and, imazethapyr (PURSUIT) 30,150,300,1200 g/Ha The triazolopyrimidine and phenoxypyrimidine were formulated in an adjuvant wetting agent known as JF5969 and diluted with water to make a final concentration of 10% JF5969. The remaining compounds were diluted with water only.
The spray jet and parameters were as decribed above under "SCREENING". After spraying, the seeds were covered with 0.5 litre of compost and firmed down flat (2.5cm covering) and grown under the conditions described under "SCREENING" above.
Visual assessments were made of the plants after four weeks growth. Each plant was scored on a scale of zero to 5 and the height measured from soil surface to the tallest leaf tip. The scoring scale was as follows: 0 - 0 to 10% damage (little or no herbicidal effect) 1 - 11 to 25% damage 2 - 26 to 50% damage 3 - 51 to […] 4 - 81 to 95% damage 5 - 96 to 100% damage (complete death of the plant) In carrying out these assessments, plants which were obviously of the sensitive phenotype were ignored (approximately 50% of the plants). […]

Experiment [3] concerns the target ALS enzyme extracted from Mutant 10 (heterozygous). Put plainly: ALS enzyme assay, heterozygous Mutant 10. To be noted: for IC50: ALS of heterozygous Mutant 10, read-out: ID50% (the source's name); for resistance group, Enzyme Assay: Mutant 10, groups Strong, Intermediate, Weak, Zero; for Fold Increase: fold increase in resistance vs wild type, heterozygous Mutant 10, 30 min. Type of experiment: biochemical, Zea mays. Here is the method:
as §1, §2, §3, §4, §5, §6

Experiment [4] deals with ALS enzyme extracted from Mutant 7 (heterozygous). Put plainly: ALS enzyme assay, heterozygous Mutant 7. Type of experiment: biochemical, Zea mays. To be noted: for IC50: ALS of heterozygous Mutant 7, read-out: ID50% (the source's name); for resistance group, Enzyme Assay: Mutant 7, groups Strong, Intermediate, Weak, Zero; for Fold Increase: fold increase in resistance vs wild type, heterozygous Mutant 7, 30 min. Here is the method: as §1, §2, §3, §4, §5, §6

Experiment [5] has as its target ALS enzyme extracted from Mutant 5 (heterozygous). In words: ALS enzyme assay, heterozygous Mutant 5. Type of experiment: biochemical, Zea mays. The following applies: for IC50: ALS of heterozygous Mutant 5, read-out: ID50% (the source's name); for resistance group, Enzyme Assay: Mutant 5, groups Strong, Intermediate, Weak, Zero; for Fold Increase: fold increase in resistance vs wild type, heterozygous Mutant 5, 30 min. How it is done: as §1, §2, §3, §4, §5, §6

In experiment [6] the target is ALS enzyme extracted from Mutant 2 (heterozygous). Put plainly: ALS enzyme assay, heterozygous Mutant 2. To be noted: for IC50: ALS of heterozygous Mutant 2, read-out: ID50% (the source's name); for resistance group, Enzyme Assay: Mutant 2, groups Strong, Intermediate, Weak, Zero; for Fold Increase: fold increase in resistance vs wild type, heterozygous Mutant 2, 30 min. Type of experiment: biochemical, Zea mays. Here is the method:
as §1, §2, §3, §4, §5, §6

Where [7] appears, read: herbicide concentration giving 50% inhibition of ALS activity.

As for `COc1cc(Cl)nc(NC(=O)NS(=O)(=O)c2ccccc2C(=O)O)n1` [Chlorimuron, chlorimuron], the IC50 was 3.7 nM in experiment [1]; 0.017 µM in experiment [3]; 5 nM in experiment [4]; 0.017 µM in experiment [5]; 0.01 µM in experiment [6]. For the same molecule, the “resistance group, Dose Response” value in experiment [2] is on record as “Zero”. The “resistance group, Enzyme Assay” value is reported as “Intermediate” in experiment [3], “Weak” in experiment [4], “Weak” in experiment [5] and “Weak” in experiment [6]. In addition, the “Fold Increase” value in experiment [3] came to 5; in experiment [4], 1; in experiment [5], 5; in experiment [6], 3.
Take `COc1nc(C)nc(NC(=O)NS(=O)(=O)c2ccccc2Cl)n1` [Chlorsulfuron, chlorsulfuron]: the IC50 in experiment [1] came to 18.5 nM; in experiment [3] it was 0.035 µM; in experiment [4] it was 8 nM; in experiment [5], 0.04 µM; in experiment [6] it was 0.065 µM. Further, in experiment [2], the “resistance group, Dose Response” value was “Weak”. In addition, the “resistance group, Enzyme Assay” value is recorded as “Weak” in experiment [3], “Zero” in experiment [4], “Weak” in experiment [5] and “Weak” in experiment [6]. Besides, the “Fold Increase” value came to 2 in experiment [3], 1 in experiment [4], 2 in experiment [5] and 4 in experiment [6].
As to `CC(C)C1(C)N=C(c2nc3ccccc3cc2C(=O)O)NC1=O` (centres unmarked) [Imazaquin, imazaquin], the IC50 came out at 600 nM in experiment [1] (setting [7]); 7 µM in experiment [3]; 1000 nM in experiment [4]; 25 µM in experiment [5]; 20 µM in experiment [6]. Further, in experiment [2], the “resistance group, Dose Response” value is given as “Zero”. Moreover, the “resistance group, Enzyme Assay” value in experiment [3] is “Weak”; in experiment [4] it was “Weak”; in experiment [5] it was “Intermediate”; in experiment [6], “Intermediate”. For the same molecule, the “Fold Increase” value in experiment [3] is reported as 12; in experiment [4], 2; in experiment [5] it was 42; in experiment [6], 33.
Turning to `CCc1cnc(C2=NC(=O)C(C)(C(C)C)N2)c(C(=O)O)c1` (centres unmarked) [Imazethapyr, 5-ethyl-2-(5-iso-propyl-5-methyl-4-oxo-2-imidazolin-2-yl) nicotinic acid], the IC50 in experiment [1] (setting [7]) is 1500 nM; in experiment [3], 15 µM; in experiment [4] it was 4000 nM; in experiment [5] it was 125 µM; in experiment [6], 230 µM. The “resistance group, Dose Response” value in experiment [2] was “Weak”. For the same molecule, the “resistance group, Enzyme Assay” value in experiment [3] is recorded as “Intermediate”; in experiment [4], “Weak”; in experiment [5] it was “Intermediate”; in experiment [6], “Intermediate”. The “Fold Increase” value is 10 in experiment [3], 3 in experiment [4], 83 in experiment [5] and 153 in experiment [6].

The record behind these values is patent EP0472573B1, “HERBICIDE RESISTANT MAIZE” (ZENECA LIMITED, priority 1989, dated 1990).
